Results taken from US20080280814A1, “Pharmaceutical Compositions Containing Insulin and Insulinotropic Peptide” (Novo Nordisk A/S, priority 2004, published 2008).

Molecular target: T1, His^B10 anion site of the R6 hexameric aspart (Homo sapiens, UniProt P01308, P52D)
T1 construct: The A-chain is a 21 amino acid peptide and the B-chain is a 30 amino acid peptide
Assay: 600 MHz proton NMR of aspart/liraglutide mixtures (R6 hexamer signal of Cys A6 alpha proton at 5.6 ppm)
Type: binding
Settings: for stabilization of the aspart R6 conformation (NMR resonances between 5 and 6 ppm): ligand at 3 mM added to the aspart/liraglutide mixtures of FIG. 13, FIG. 14, 15
Method: Insulin Aspart (B28 Asp human insulin) and liraglutide mixtures were prepared with constant aspart concentration (0.6 mM) and increasing concentration of liraglutide (going from 0 to 2.4 mM). Mixtures are formulated at pH 7.5, 1.6% w/v d-glycerol, 0.3 mM Zn(Ac)2, 30 mM d-phenol (deuterated phenol in order to avoid any proton NMR signal). […] This region of the proton NMR signal only included signals from aspart, no signals from liraglutide were present.
Ligands for the His^B10 anion site of the R6 hexameric aspart entity will stabilize this R6 conformation. Two such ligands were tested under the same conditions as was used in the experiment depicted in FIG. 13 with the addition of ligands at 3 mM concentration.

T1 sequence (P01308 25-54 P52D): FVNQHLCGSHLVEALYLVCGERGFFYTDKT
T1 sequence (P01308 90-110): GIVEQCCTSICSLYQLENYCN

Compound | stabilization of the aspart R6 conformation (NMR resonances between 5 and 6 ppm) | tightness of binding to the Zn-binding pocket of aspart, compared (ligand at 3 mM, FIG. 15 against FIG. 14)
c1ccc(Cc2nn[nH]n2)cc1 [5-Benzyl-2H-tetrazole] | stabilized the R6 conformation | –
O=C1NC(=O)/C(=C/c2cccc3ccccc23)S1 [5-Naphthalen-1-ylmethylenethiazolidine-2,4-dione] | invariant aspart resonances under increasing liraglutide concentration | binds even tighter than the 5-Benzyl-2H-tetrazole
